# Assay results taken from PMC6696315, “Inhibiting Acetylcholinesterase to Activate Pleiotropic Prodrugs with Therapeutic Interest in Alzheimer’s Disease” (Molecules, 2019).
# Entries after “also recorded” stand apart in the source; their conditions may differ.
# How the values were obtained:
# AChE [1] = biological target: T1, AChE (Homo sapiens, UniProt P22303); experiment: Kinetic study for AChE inhibition (Lineweaver-Burk plots); type: biochemical
# Method: To try to clarify the mechanism of action of 19 and 20, reciprocal plots of 1/velocity vs. 1/[substrate] were constructed at different concentrations of the substrate acetylthiocholine iodide (0.01–1 mM) by using the spectrometric method by Ellman et al.. Four concentrations of 19 were selected for the studies: 10^−6, 10^−7, 10^−8 and 10^−9 M for the kinetic analysis of AChE inhibition. Four concentrations of 20 were selected for the studies: 10^−5, 10^−6, 10^−7 and 10^−8 M for the kinetic analysis of AChE inhibition. The plots were assessed by a weighted least squares analysis that assumed the variance of velocity (ν) to be a constant percentage of ν for the entire dataset. Slopes of these reciprocal plots were then plotted against the concentration of 19 and 20 in a weighted analysis.
# (ee)AChE = biological target: T2, (ee)AChE (Electrophorus electricus, UniProt O42275); experiment: AChE-dependent decarbamoylation (UPLC, LCMS); type: biochemical; conditions: 5 µM, PBS pH 7.4, 24 h
# T2 construct: purchased Sigma Aldrich
# T2 sequence (O42275 24-633): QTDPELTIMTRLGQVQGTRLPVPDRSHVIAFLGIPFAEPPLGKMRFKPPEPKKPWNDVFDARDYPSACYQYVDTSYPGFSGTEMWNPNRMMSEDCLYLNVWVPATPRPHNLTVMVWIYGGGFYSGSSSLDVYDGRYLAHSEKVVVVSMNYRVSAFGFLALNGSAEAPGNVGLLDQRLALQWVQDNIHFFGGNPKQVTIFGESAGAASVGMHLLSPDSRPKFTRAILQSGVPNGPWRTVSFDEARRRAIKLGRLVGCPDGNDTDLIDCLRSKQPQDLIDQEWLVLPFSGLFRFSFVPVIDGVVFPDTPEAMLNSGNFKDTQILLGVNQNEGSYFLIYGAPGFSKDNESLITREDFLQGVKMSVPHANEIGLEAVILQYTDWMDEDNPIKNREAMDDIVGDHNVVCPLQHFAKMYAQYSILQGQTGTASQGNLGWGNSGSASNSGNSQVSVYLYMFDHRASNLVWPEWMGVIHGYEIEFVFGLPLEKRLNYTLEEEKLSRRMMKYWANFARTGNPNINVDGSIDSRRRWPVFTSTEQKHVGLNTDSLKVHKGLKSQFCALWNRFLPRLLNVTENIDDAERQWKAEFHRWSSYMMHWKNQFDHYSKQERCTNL
# Method: The in vitro decarbamoylation of 20 in the presence of AChE was established according to a new analytical method developed by Alix et al.. A large excess of Electrophorus electricus (eel)AChE was added to a solution of 20 in a phosphate-buffered saline (PBS) buffer (pH 7.4) at 25 °C. After 24 h of incubation, the solution was extracted by ethyl acetate, evaporated and solubilized in acetonitrile, and then analyzed by UPLC and LCMS. Owing to its high homology with the active-site sequence of the human AChE and its commercial availability, (ee)AChE is commonly used for in vitro assays and was chosen for this study.
# The HPLC analyses were performed using an Agilent pump 1290, an autosampler 1290 and a diode array UV detector 1260 (Agilent technologies, Santa Clara, CA, USA). A reversed phase column C18 (Zorbax1 Eclipse Plus RRHD, 1.8 µm, 2.1 × 50 mm, Agilent) has been used for all components. A binary pump was used and the mobile phase was always composed of a mixture of (A) water (0.1% formic acid) and (B) acetonitrile (0.1% formic acid). Solutions of compound 19 and 20 were prepared in a PBS buffer (pH 7.4). […] The crude product was submerged in 50 µL of ACN, then analyzed by UPLC and LC-MS.
# [2] = CNS-activity and acute toxicity test; conditions: male, NMRI, mouse, in vivo, ip
# Method: (§1) Animals. Adult male NMRI mice (3 months old, weighing 35–40 g) from Janvier labs (Le Genest-Saint-Isle, France) were used to perform experiments. Mice were housed by ten in standard polycarbonate cages in standard controlled conditions (22 ± 2 °C, 55 ± 10% humidity) with a reversed 12 h light/dark cycle (light on at 7 pm). Food and water were available ad libitum in the home cage. All experiments were conducted (between 9 am and 3 pm) during the active–dark phase of the cycle and were in agreement with the European Directives and French law on animal experimentation (personal authorization n° 14–17 for MB and 14–60 for TF).
# (§2) CNS-activity and acute toxicity test. Behavioral and neurological changes induced by graded doses (1, 10, 100 mg/kg) of the tested derivatives were evaluated in mice, in groups of four, by a standardized observation technique at different times (30 min, 3 and 24 h) after intraperitoneal administration. […] The approximate DL50 of the compounds were also calculated through the quantification of mortality after 24 h. Amphetamine (2 mg/kg) and chlorpromazine (10 mg/kg) were used as the stimulant and depressive references, respectively.
# mice [3] = experiment: CNS-activity and acute toxicity test; conditions: mice, IP
# Method: as §1, §2
# mice [4] = experiment: Spontaneous alternation (Y maze), scopolamine-induced deficit; type: in vivo, NMRI mice; conditions: 1 mg/kg IP 30 min before test, scopolamine 0.5 mg/kg SC
# Method: as §1
# Spatial working memory. The antiamnesic activity of the tested compounds was evaluated by a reversal of deficit on spontaneous alternation behavior in the Y maze test. […] The Y maze made of grey plastic consisted of three equally-spaced arms (21-cm long, 7-cm wide with walls 15-cm high). The mouse was placed at the end of one of the arms and allowed to move freely through the maze during a 5 min session, while the sequence of arm entries was recorded by an observer. An arm entry was scored when all four feet crossed into the arm. An alternation was defined as entries into all three arms on a consecutive occasion.
# Pharmacological treatments.
# AChE [5] = biological target: T1, AChE; experiment: AChE inhibition, Ellman assay; type: biochemical; design: AChE from human erythrocytes; purchased Sigma Aldrich; host or cells: human erythrocytes (natural source); conditions: (h)AChE IC50, Ellman assay; mean ± SEM of at least two experiments
# Method: All the synthesized phenolic derivatives and their carbamates were evaluated as potential inhibitors of human AChE, using the Ellman assay, as well as potential ligands for human 5-HT4R using a radioligand displacement assay.
# The inhibitory capacity of compounds on AChE biological activity was evaluated through the use of the spectrometric method of Ellman. Acetylthiocholine iodide and 5,5-dithiobis-(2-nitrobenzoic) acid (DTNB) were purchased from Sigma Aldrich. AChE from human erythrocytes (buffered aqueous solution, ≥500 units/mg protein (BCA), Sigma Aldrich, St. Louis, MO, USA) was diluted in 20 mM HEPES buffer pH 8, 0.1% Triton X-100 such as to have enzyme solution with 0.25 unit/mL enzyme activity. In the procedure, 100 μL of 0.3 mM DTNB dissolved in a phosphate buffer with pH 7.4 were added into the 96-well plates followed by 50 μL of the test compound solution and 50 μL of enzyme (0.05 U final). After 5 min of preincubation at 25 °C, the reaction was then initiated by the injection of 50 μL of 10 mM acetylthiocholine iodide solution. […] Assays were performed with a blank containing all components except acetylthiocholine, in order to account for non-enzymatic reactions. The reaction slopes were compared and the percent inhibition due to the presence of test compounds was calculated by the following expression: 100 − (vi/v0 × 100), where vi is the rate calculated in the presence of inhibitor and v0 is the enzyme activity.
# T1 sequence (P22303 32-617 isoform P22303-2 limits assumed): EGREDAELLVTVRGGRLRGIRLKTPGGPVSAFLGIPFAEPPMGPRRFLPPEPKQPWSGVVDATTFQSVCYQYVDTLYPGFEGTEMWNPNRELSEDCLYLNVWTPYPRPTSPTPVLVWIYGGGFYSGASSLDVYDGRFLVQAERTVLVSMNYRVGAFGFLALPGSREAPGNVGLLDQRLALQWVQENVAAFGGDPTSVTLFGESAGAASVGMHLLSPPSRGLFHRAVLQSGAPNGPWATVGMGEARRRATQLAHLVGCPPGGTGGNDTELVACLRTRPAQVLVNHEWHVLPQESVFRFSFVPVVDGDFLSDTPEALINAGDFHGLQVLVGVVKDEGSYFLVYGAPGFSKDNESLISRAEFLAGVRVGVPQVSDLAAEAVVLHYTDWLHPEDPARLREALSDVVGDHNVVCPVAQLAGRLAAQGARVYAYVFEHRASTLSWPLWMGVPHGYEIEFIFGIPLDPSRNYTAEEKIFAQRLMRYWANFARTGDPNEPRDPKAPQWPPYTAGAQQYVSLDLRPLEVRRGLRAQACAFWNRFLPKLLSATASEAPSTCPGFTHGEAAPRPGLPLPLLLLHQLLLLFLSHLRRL
compound,measurement,setting,value
"CCN(C)C(=O)Oc1cccc(CN2CCC(CCC(=O)c3cc(Cl)c(N)cc3OC)CC2)c1.O=C(O)/C=C/C(=O)O [Compound 20, [3-[[4-[3-(4-Amino-5-chloro-2-methoxyphenyl)-3-oxopropyl]-1-piperidyl]methyl]phenyl] N-ethyl-N-methyl-carbamate fumaric acid salt]",mechanism of AChE inhibition,AChE [1],mixed-type AChE inhibitor; also recorded: mixed-type inhibition
same,decarbamoylation in the presence of (ee)AChE,(ee)AChE; 250 U/mL (ee)AChE,decarbamoylation of 20 and release of 4
same,chemical conversion in PBS buffer without (ee)AChE,(ee)AChE; negative control,not chemically converted into 4
same,LD50 at 24 h,[2],> 100 mg/kg
same,Symptoms (Subtoxic Doses),mice [3]; 100 mg/kg,"100, tremors, hypoactivity full recovery after 24h"
same,Symptoms (Subtoxic Doses),mice [3]; 1–10 mg/kg,"1–10, no symptoms"
same,percentage of spontaneous alternation,mice [4],significantly different from the value of the chance level
same,IC50,AChE [5],6.07 ± 0.404 µM
